The values below come from patent US7473669B2, “Substituted 4,5-dihydro-1,2,4-triazin-6-ones, 1,2,4-triazin-6-ones, and their use as fungicides” (priority 2005, dated 2009).

Type in all cases: in vivo
For experiment [1], the system named is Puccinia recondita tritici. Put plainly: Leaf Rust of Wheat greenhouse one-day protectant test. To be noted: 24 h, wheat plants, one-day protectant test, 200 ppm application rate, read-out: PUCCRT percent control rating.
For another experiment, the system named is Erysiphe cichoracaerum. Put plainly: Cucumber Powdery Mildew greenhouse one-day protectant test. To be noted: 24 h, cucumber plants, one-day protectant test, 200 ppm application rate, read-out: ERYSCI percent control rating.
For a further experiment, the system named is Colletotricum lagenarium. Put plainly: Cucumber Anthracnose greenhouse one-day protectant test. The settings on record: Cucumis sativus, 24 h, cucumber plants, one-day protectant test, 200 ppm application rate; read-out: COLLLA percent control rating.
A further experiment has as its system Leptosphaeria nodorum. Put plainly: Glume Blotch of Wheat greenhouse one-day protectant test. To be noted: Parastagonospora nodorum, 24 h; wheat plants, one-day protectant test, 200 ppm application rate; read-out: LEPTNO percent control rating.
For another experiment, the system named is Pyricularia oryzae. Put plainly: whole plant or invertebrate. The settings on record: 24 h, read-out: PYRIOR percent control rating.
The next experiment has as its system Phytophthora infestans. Put plainly: whole plant or invertebrate. To be noted: in Solanum lycopersicum, 24 h, read-out: PHYTIN percent control rating, tomato plants, one-day protectant test, 200 ppm application rate.

Each structure is given as a SMILES string.

Regarding `O=C(c1ccccc1)c1cccc(C2=NN(CC(F)(F)F)C(=O)C(SC3CCCCC3)N2)c1` (stereo not drawn) [Compound 54], the pest or weed control at 200 ppm in experiment [1] is 50 to 79%; with Erysiphe cichoracaerum it was 0 to 49%; in the experiment on Colletotricum lagenarium, 50 to 79%; in the experiment with Leptosphaeria nodorum, 80 to 100%; with Pyricularia oryzae, 80 to 100%; with Phytophthora infestans, 0 to 49%.

Consider `O=C1C(SC2CCCCC2)NC(c2cccc(-c3ccsc3)c2)=NN1CC(F)(F)F` (stereo not drawn) [Compound 55], for which the pest or weed control at 200 ppm lay within 50 to 79% in experiment [1]; 0 to 49% in the experiment with Erysiphe cichoracaerum; 50 to 79% in the experiment with Colletotricum lagenarium; 80 to 100% in the experiment with Leptosphaeria nodorum; 80 to 100% with Pyricularia oryzae; 0 to 49% with Phytophthora infestans.

Turning to `CON=C(c1ccccc1)c1cccc(C2=NN(CC(F)(F)F)C(=O)C(SC3CCCCC3)N2)c1` (stereo not drawn) [Compound 56], the pest or weed control at 200 ppm in experiment [1] is 50 to 79%; in the experiment with Erysiphe cichoracaerum it was 0 to 49%; with Colletotricum lagenarium, 0 to 49%; in the experiment with Leptosphaeria nodorum, 80 to 100%; with Pyricularia oryzae it was 80 to 100%; with Phytophthora infestans, 0 to 49%.

On to `O=C1C(SC2CCCCC2)NC(c2cccc(C(=NOCc3ccccc3)c3ccccc3)c2)=NN1CC(F)(F)F` (stereo not drawn) [Compound 57], for which the pest or weed control at 200 ppm (in experiment [1]; with Erysiphe cichoracaerum; in the experiment on Colletotricum lagenarium; with Leptosphaeria nodorum; in the experiment on Pyricularia oryzae; in the experiment on Phytophthora infestans) was 0 to 49% in each case.

`O=C1CNC(c2ccc(N3CCOCC3)cc2)=NN1CC(F)(F)F` [Compound 58]: the pest or weed control at 200 ppm in experiment [1] lay within 0 to 49%; in the experiment with Erysiphe cichoracaerum, 50 to 79%; in the experiment with Colletotricum lagenarium, 0 to 49%; with Leptosphaeria nodorum it was 0 to 49%; in the experiment with Pyricularia oryzae, 80 to 100%; in the experiment on Phytophthora infestans, 0 to 49%.

With `O=C1CNC(c2ccc(Oc3cccnc3)cc2)=NN1CC(F)(F)F` [Compound 59], the pest or weed control at 200 ppm in experiment [1] was in the range of 80 to 100%; with Erysiphe cichoracaerum it was 0 to 49%; in the experiment with Colletotricum lagenarium, 0 to 49%; in the experiment with Leptosphaeria nodorum, 50 to 79%; in the experiment on Pyricularia oryzae, 50 to 79%; in the experiment with Phytophthora infestans, 50 to 79%.

Consider `O=C1CNC(c2csc(-c3ccccc3)c2)=NN1CC(F)(F)F` [Compound 60], for which the pest or weed control at 200 ppm was in the range of 0 to 49% in experiment [1]; 0 to 49% in the experiment on Erysiphe cichoracaerum; 0 to 49% in the experiment with Colletotricum lagenarium; 80 to 100% in the experiment with Leptosphaeria nodorum; 80 to 100% in the experiment on Pyricularia oryzae; 0 to 49% with Phytophthora infestans.

Take `CCCCN1N=C(c2cc(-c3ccsc3)cc(-c3ccsc3)c2)NCC1=O` [Compound 62]: the pest or weed control at 200 ppm is 0 to 49% in experiment [1]; 0 to 49% in the experiment on Erysiphe cichoracaerum; 0 to 49% in the experiment with Colletotricum lagenarium; 80 to 100% with Leptosphaeria nodorum; 0 to 49% in the experiment with Pyricularia oryzae; 0 to 49% with Phytophthora infestans.

On to `Cc1cc(C)cc(C2=NN(Cc3c(F)c(F)c(F)c(F)c3F)C(=O)CN2)c1` [Compound 63], for which the pest or weed control at 200 ppm was in the range of 0 to 49% in experiment [1]; 0 to 49% with Erysiphe cichoracaerum; 0 to 49% in the experiment on Colletotricum lagenarium; 50 to 79% with Leptosphaeria nodorum; 50 to 79% in the experiment on Pyricularia oryzae; 0 to 49% in the experiment with Phytophthora infestans.

`Cc1cc(C)cc(C2=NN(CCOc3ccccc3)C(=O)CN2)c1` [Compound 64]: the pest or weed control at 200 ppm fell in the range of 80 to 100% in experiment [1]; 0 to 49% in the experiment on Erysiphe cichoracaerum; 50 to 79% in the experiment on Colletotricum lagenarium; 80 to 100% with Leptosphaeria nodorum; 80 to 100% in the experiment with Pyricularia oryzae; 0 to 49% in the experiment on Phytophthora infestans.

Consider `O=C1CNC(c2cc(Cl)cc(Cl)c2)=NN1Cc1c(F)c(F)c(F)c(F)c1F` [Compound 65], for which the pest or weed control at 200 ppm fell in the range of 0 to 49% in experiment [1]; 0 to 49% in the experiment on Erysiphe cichoracaerum; 80 to 100% with Colletotricum lagenarium; 80 to 100% in the experiment on Leptosphaeria nodorum; 50 to 79% in the experiment with Pyricularia oryzae; 0 to 49% in the experiment with Phytophthora infestans.

For the compound `O=C1CNC(c2cc(Cl)cc(Cl)c2)=NN1CCOc1ccccc1` [Compound 66], the pest or weed control at 200 ppm was in the range of 80 to 100% in experiment [1]; 0 to 49% with Erysiphe cichoracaerum; 80 to 100% in the experiment with Colletotricum lagenarium; 80 to 100% in the experiment on Leptosphaeria nodorum; 80 to 100% in the experiment with Pyricularia oryzae; 0 to 49% in the experiment with Phytophthora infestans.

Regarding `O=C1CNC(c2cc(Br)cc(-c3ccsc3)c2)=NN1Cc1ccccc1` [Compound 68], the pest or weed control at 200 ppm in experiment [1] fell in the range of 0 to 49%; with Erysiphe cichoracaerum, 0 to 49%; with Colletotricum lagenarium it was 0 to 49%; in the experiment on Leptosphaeria nodorum, 80 to 100%; in the experiment with Pyricularia oryzae it was 80 to 100%; with Phytophthora infestans, 0 to 49%.

With `O=C1CNC(c2cc(Br)cc(-c3ccsc3)c2)=NN1CCc1ccccc1` [Compound 69], the pest or weed control at 200 ppm in experiment [1] lay within 0 to 49%; with Erysiphe cichoracaerum, 0 to 49%; in the experiment with Colletotricum lagenarium it was 0 to 49%; in the experiment on Leptosphaeria nodorum, 50 to 79%; in the experiment with Pyricularia oryzae, 50 to 79%; in the experiment with Phytophthora infestans it was 0 to 49%.

On to `O=C1CNC(c2cccc(C#Cc3ccccc3)c2)=NN1CC(F)(F)F` [Compound 70], for which the pest or weed control at 200 ppm is 0 to 49% in experiment [1]; 0 to 49% in the experiment with Erysiphe cichoracaerum; 0 to 49% with Colletotricum lagenarium; 0 to 49% with Leptosphaeria nodorum; 80 to 100% in the experiment on Pyricularia oryzae; 0 to 49% in the experiment with Phytophthora infestans.

For `O=C1CNC(c2cccc(/C=C\c3ccccc3)c2)=NN1CC(F)(F)F` [Compound 71], the pest or weed control at 200 ppm is 50 to 79% in experiment [1]; 0 to 49% in the experiment with Erysiphe cichoracaerum; 0 to 49% in the experiment with Colletotricum lagenarium; 80 to 100% in the experiment on Leptosphaeria nodorum; 50 to 79% in the experiment with Pyricularia oryzae; 0 to 49% with Phytophthora infestans.

Take `O=C1CNC(c2cccc(/C=C3/CCc4ccccc43)c2)=NN1CC(F)(F)F` [Compound 72]: the pest or weed control at 200 ppm was 80 to 100% in experiment [1]; 0 to 49% in the experiment on Erysiphe cichoracaerum; 0 to 49% in the experiment on Colletotricum lagenarium; 80 to 100% with Leptosphaeria nodorum; 80 to 100% in the experiment on Pyricularia oryzae; 0 to 49% in the experiment on Phytophthora infestans.

With `O=C1CNC(c2cccc(C(=NOCc3ccccc3)c3ccccc3)c2)=NN1CC(F)(F)F` [Compound 76], the pest or weed control at 200 ppm was 50 to 79% in experiment [1]; 0 to 49% in the experiment with Erysiphe cichoracaerum; 0 to 49% in the experiment on Colletotricum lagenarium; 50 to 79% in the experiment on Leptosphaeria nodorum; 80 to 100% in the experiment on Pyricularia oryzae; 0 to 49% in the experiment with Phytophthora infestans.

For the compound `O=c1cnc(-c2ccc(N3CCOCC3)cc2)nn1CC(F)(F)F` [Compound 77], the pest or weed control at 200 ppm in experiment [1] lay within 0 to 49%; with Erysiphe cichoracaerum it was 50 to 79%; in the experiment with Colletotricum lagenarium, 80 to 100%; with Leptosphaeria nodorum, 50 to 79%; in the experiment on Pyricularia oryzae, 80 to 100%; in the experiment with Phytophthora infestans, 50 to 79%.

For the compound `O=c1cnc(-c2ccc(Oc3cccnc3)cc2)nn1CC(F)(F)F` [Compound 78], the pest or weed control at 200 ppm in experiment [1] lay in the range of 80 to 100%; in the experiment on Erysiphe cichoracaerum it was 0 to 49%; in the experiment with Colletotricum lagenarium, 80 to 100%; in the experiment on Leptosphaeria nodorum, 50 to 79%; in the experiment on Pyricularia oryzae, 80 to 100%; with Phytophthora infestans, 80 to 100%.

For `O=c1cnc(-c2csc(-c3ccccc3)c2)nn1CC(F)(F)F` [Compound 79], the pest or weed control at 200 ppm fell in the range of 80 to 100% in experiment [1]; 0 to 49% in the experiment on Erysiphe cichoracaerum; 50 to 79% in the experiment on Colletotricum lagenarium; 80 to 100% with Leptosphaeria nodorum; 80 to 100% in the experiment on Pyricularia oryzae; 0 to 49% with Phytophthora infestans.

In the case of `CCCCn1nc(-c2cc(-c3ccsc3)cc(-c3ccsc3)c2)ncc1=O` [Compound 81], the pest or weed control at 200 ppm in experiment [1] fell in the range of 0 to 49%; in the experiment on Erysiphe cichoracaerum it was 0 to 49%; in the experiment with Colletotricum lagenarium, 0 to 49%; with Leptosphaeria nodorum, 80 to 100%; with Pyricularia oryzae it was 0 to 49%; in the experiment with Phytophthora infestans it was 0 to 49%.

For the compound `O=c1cnc(-c2cc(Br)cc(-c3ccsc3)c2)nn1Cc1ccccc1` [Compound 82], the pest or weed control at 200 ppm in experiment [1] was 0 to 49%; in the experiment on Erysiphe cichoracaerum it was 0 to 49%; in the experiment on Colletotricum lagenarium, 0 to 49%; in the experiment on Leptosphaeria nodorum, 80 to 100%; in the experiment with Pyricularia oryzae, 50 to 79%; in the experiment on Phytophthora infestans, 0 to 49%.

With `O=c1cnc(-c2cc(Br)cc(-c3ccsc3)c2)nn1CCc1ccccc1` [Compound 83], the pest or weed control at 200 ppm in experiment [1] lay within 0 to 49%; with Erysiphe cichoracaerum, 0 to 49%; with Colletotricum lagenarium it was 0 to 49%; in the experiment with Leptosphaeria nodorum, 50 to 79%; in the experiment with Pyricularia oryzae, 0 to 49%; in the experiment with Phytophthora infestans, 0 to 49%.
